#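 Where inhibition never reached the appropriate level, the endpoint shown equals the highest concentration tested. Otherwise, values were interpolated linearly from a five-concentration, 48-hour dose response in 96-well plates. TGI denotes the concentration required for complete inhibition of growth.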 Where a SMILES comes first, the peptide text is derived from it. The star is where a group is joined. Boc = CC(C)(C)OC(=O)*
# Key:
# Assay in all cases: DTP human tumour cell line panel, 48 h
# [1] = system: MDA-MB-231 breast
# [2] = system: MALME-3M melanoma
# [3] = system: SNB-19 CNS
# [4] = system: UACC-62 melanoma
# [5] = system: T-47D breast
# [6] = system: CCRF-CEM leukemia
# [7] = system: SF-539 CNS
# [8] = system: K-562 leukemia
# [9] = system: SF-268 CNS
# [10] = system: A498 renal
SMILES,TGI [1] [µM],TGI [2] [µM],TGI [3] [µM],TGI [4] [µM],TGI [5] [µM],TGI [6] [µM],TGI [7] [µM],TGI [8] [µM],TGI [9] [µM],TGI [10] [µM]
COc1cccc(-c2cc(=O)c3ccccc3o2)c1N,> 100,> 56,> 100,> 100,> 57.3,> 100,> 100,> 100,> 100,–
Cc1nnc(Nc2ccccc2)o1,–,> 100,> 100,> 100,> 100,> 100,> 100,> 100,> 100,–
c1ccc(C2C3=C(Nc4ncnn42)c2ccccc2C3)cc1 (centres undefined),–,> 100,> 100,> 100,–,> 100,34.2,> 100,> 100,> 100
OCc1ccc2[n+](c1)CCC1c3ccccc3NC21 (centres undefined),–,> 300,> 300,> 300,–,> 300,> 300,> 300,> 300,–
CN(C)/N=N/c1nc2c(c(=O)n(C)c(=O)n2C)n1C,> 100,> 100,> 100,> 100,> 100,> 100,–,> 100,> 100,> 100
CCN(CC)CCc1c2c(nc3ccccc13)C(=O)c1cccnc1C2=O,6.72,4.49,–,2.97,5.31,5.72,–,4.23,> 100,5.29
COc1ccc(C(C#N)NNC(=O)c2ccccc2O)cc1OC (centres undefined),–,> 100,–,0.908,–,> 100,6.81,> 100,> 100,–
NC(N)=NS(=O)(=O)c1ccc(NCc2c3ccccc3[n+]([O-])c3ccccc23)cc1,–,51.5,> 100,> 100,–,84.4,–,> 100,86.6,> 100
CCOP(=O)(OCC)/C(C#N)=C/c1cnc(-c2ccccc2)[nH]1,> 100,> 100,> 100,> 100,–,> 100,> 100,> 100,> 100,> 100
C[N+]1=C2[B-](C(C)(C)C)=[N+](C(C)(C)C)[B-]2(C(C)(C)C)[N+](C)=C2[B-](C(C)(C)C)=[N+](C(C)(C)C)[B-]21C(C)(C)C (centres undefined),> 100,> 100,> 100,> 100,> 100,> 100,–,> 100,> 100,> 100
CC(C)(C)c1ccc2c(c1)CNCCNCc1cc(C(C)(C)C)ccc1OCC1(CO2)COc2ccc(C(C)(C)C)cc2CNCCNCc2cc(C(C)(C)C)ccc2OC1,0.623,2.8,2,2.76,3.73,0.68,2.76,–,5.12,2.83
CC1(C)CC(/C=C2/OC(=O)c3ccccc32)=C(C#N)C(=O)O1,–,> 100,> 100,> 100,–,> 100,> 100,> 100,> 100,–
O=C(O)CN(CCNC(=O)OCC1c2ccccc2-c2ccccc21)CCNC(=O)OCC1c2ccccc2-c2ccccc21,31.9,38.9,73.4,47.5,49.9,63,46.7,39.9,39.8,–
Cc1c(-c2nc3ccccc3[nH]2)c(=O)n(-c2ccccc2)n1C,> 100,> 100,> 100,> 100,> 100,> 100,> 100,> 100,> 100,–
CC(C)c1ccc2[nH]c(O)c(-c3[nH]c4ccccc4c3N=O)c2c1,29.8,14.4,36.1,20.6,25.4,12.9,–,17.8,20.4,9.29
O=C(CCCCCCCCC(=O)NN1C(=O)/C(=C\c2ccc(O)c(O)c2)SC1c1ccc(Cl)cc1)NN1C(=O)/C(=C\c2ccc(O)c(O)c2)SC1c1ccc(Cl)cc1 (centres undefined),> 100,> 100,> 53.1,60.2,> 100,–,43.8,> 75.9,> 62.7,69
COC(=O)C1(C(=O)OC)CC2=C(S(=O)(=O)c3ccccc3)C[C@H](S(=O)(=O)c3ccccc3)[C@H]2C1,> 100,> 100,> 100,71.6,92.6,> 100,–,58.5,> 100,> 100
N.N.N.O=[N+]([O-])[O-].O=[N+]([O-])[O-].O=[N+]([O-])[O-].O=[N+]([O-])[O-].[Co+3],–,> 100,> 100,> 100,–,> 100,> 100,> 100,> 100,> 100
COC(=O)CC(=O)C[P+](c1ccccc1)(c1ccccc1)c1ccccc1,–,> 218,> 218,> 218,–,> 218,> 218,> 218,> 218,–
COC(=O)CNC(=O)C(Cc1ccccc1)NC(=O)C(CCSC)NC(=O)C(Cc1ccc(O)cc1)NC(=O)OC(C)(C)C (centres undefined) (Boc-YMFG-OMe; configuration not given here),52.8,> 100,> 100,> 100,> 100,–,> 100,> 100,87.7,> 100
COC(=O)C(/C(=N/NC(N)=O)C(=O)Nc1ccc(C)cc1)c1nc2ccc([N+](=O)[O-])cc2[nH]c1=O (centres undefined),> 100,> 100,–,> 100,> 100,–,> 100,> 100,> 100,> 100
CCOC(=O)C1Cc2[nH]c3ccccc3c2C(C)C1C (centres undefined),–,33.2,34.5,22.7,–,57.4,31.4,> 100,47.5,34.4
COc1ccc(C2Oc3c(cc(O)c(OC)c3C)[C@@H]2C)cc1OC (some centres undefined),–,> 100,> 100,> 100,–,> 100,> 100,> 100,> 100,> 100

# — PubChem BioAssay (NCI)
